Test results from ChEMBL document CHEMBL1201862, “PubChem BioAssay data set” (2004).
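Growth conditions: 96-well plates. Treatment: test compound, 48 hours, 5 concentrations. Analysis: linear interpolation between bracketing concentrations; unreached endpoints set to highest concentration. The concentration for 50% growth inhibition is given as GI50.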 Activity calls are given as the source filed them. No stated cut-off is given here; in the data, active = GI50 up to about 1.1 µM and inactive = higher.

Assays:
Test in all cases: NCI tumour cell line growth inhibition, 48 h
[1] = tested on: BT-549
[2] = tested on: CCRF-CEM
[3] = tested on: HOP-62
[4] = tested on: LOX IMVI
[5] = tested on: MDA-MB-435
[6] = tested on: NCI-H460
[7] = tested on: OVCAR-4
[8] = tested on: RXF 393
[9] = tested on: SK-MEL-2
[10] = tested on: SN12C
[11] = tested on: SW-620
[12] = tested on: T47D
[13] = tested on: TK-10
[14] = tested on: U-251
[15] = tested on: UO-31
[16] = tested on: HL-60
[17] = tested on: NCI/ADR-RES
[18] = tested on: OVCAR-3
[19] = tested on: RPMI-8226
[20] = tested on: SF-539

SMILES | GI50 [1] | GI50 [2] | GI50 [3] | GI50 [4] | GI50 [5] | GI50 [6] | GI50 [7] | GI50 [8] | GI50 [9] | GI50 [10] | GI50 [11] | GI50 [12] | GI50 [13] | GI50 [14] | GI50 [15] | GI50 [16] | GI50 [17] | GI50 [18] | GI50 [19] | GI50 [20]
COC(=O)CSC1CC(=O)c2c(Cl)sc(Cl)c21 (configuration not stated) | > 100 µM (inactive) | > 100 µM (inactive) | > 100 µM (inactive) | > 100 µM (inactive) | > 100 µM (inactive) | > 100 µM (inactive) | > 100 µM (inactive) | > 100 µM (inactive) | > 100 µM (inactive) | > 100 µM (inactive) | > 100 µM (inactive) | > 100 µM (inactive) | > 100 µM (inactive) | > 100 µM (inactive) | > 100 µM (inactive) |  |  |  |  | 
CCCCCC(=O)OC[n+]1ccc2c(C)c3[nH]c4ccc(OC)cc4c3c(C)c2c1 |  | 0.0805 µM (active) | 0.586 µM (active) | 0.224 µM (active) | 0.499 µM (active) | 0.0325 µM (active) | 0.811 µM (active) | 0.208 µM (active) | 1.61 µM (inactive) | 0.117 µM (active) | 0.0735 µM (active) | 1.02 µM (active) | 2.55 µM (inactive) | 0.321 µM (active) | 0.625 µM (active) | 0.241 µM (active) | 0.213 µM (active) | > 100 µM (inactive) | 0.0619 µM (active) | 0.238 µM (active)
CCCCCCCCCCCCCCCCOCC(COP(=O)(O)OCC1OC(n2cc(CC)c(=O)[nH]c2=O)CC1O)OC(=O)CCCCCCCCCCCCCCC (configuration not stated) |  | > 100 µM (inactive) | > 100 µM (inactive) | > 100 µM (inactive) | > 100 µM (inactive) |  | > 100 µM (inactive) | > 100 µM (inactive) | > 100 µM (inactive) | > 100 µM (inactive) | > 100 µM (inactive) | > 100 µM (inactive) | > 100 µM (inactive) | > 100 µM (inactive) | > 100 µM (inactive) | 52 µM (inactive) | > 100 µM (inactive) | > 100 µM (inactive) | > 100 µM (inactive) | > 100 µM (inactive)
Cc1c(CNc2ccc(Cl)c(C(=O)NC(CC(=O)O)C(=O)O)c2)ccc2nc(N)nc(N)c12 (configuration not stated) | 33.3 µM (inactive) | 0.0753 µM (active) | 0.256 µM (active) | < 0.0118 µM (active) | < 0.01 µM (active) | 0.0352 µM (active) |  | > 39.4 µM (inactive) | > 100 µM (inactive) | 0.57 µM (active) | < 0.0175 µM (active) | > 100 µM (inactive) | 5.12 µM (inactive) | 0.134 µM (active) | 0.665 µM (active) | 2.42 µM (inactive) |  | 6.46 µM (inactive) | > 100 µM (inactive) | 2.62 µM (inactive)
CC(C)S(=O)(=O)ON1C(=O)c2ccc(N(C)C)cc2C1=O |  | 0.918 µM (active) | 42.5 µM (inactive) | 13.2 µM (inactive) | 2.04 µM (inactive) | 19.9 µM (inactive) | 17.7 µM (inactive) | 13.2 µM (inactive) | 4.01 µM (inactive) | 16.9 µM (inactive) | 11.4 µM (inactive) | 9.4 µM (inactive) | 20.5 µM (inactive) | 15.8 µM (inactive) | 18.2 µM (inactive) | 3.41 µM (inactive) | 5.4 µM (inactive) | 8.91 µM (inactive) | 2.58 µM (inactive) | 19 µM (inactive)
CN(C)CCCOC(=O)C(O)(Cc1ccccc1)C1CC1 (configuration not stated) |  | > 100 µM (inactive) | > 100 µM (inactive) | > 100 µM (inactive) | > 100 µM (inactive) | > 100 µM (inactive) | > 100 µM (inactive) | > 100 µM (inactive) | > 100 µM (inactive) | > 100 µM (inactive) | > 100 µM (inactive) | > 100 µM (inactive) | > 100 µM (inactive) | > 100 µM (inactive) |  | > 100 µM (inactive) | > 100 µM (inactive) | > 100 µM (inactive) | > 100 µM (inactive) | > 100 µM (inactive)
